Results as given in US9399645B2, “Inhibitors of HIV replication” (Boehringer Ingelheim International GmbH, priority 2011, dated 2016).

Key:
HIV-1 = experiment: C8166 HIV-1 Luciferase Assay (EC50); format: cell-based; conditions: Human immunodeficiency virus 1, C8166, 72 h
Description: C8166 HIV-1 Luciferase Assay (Ec50)
The assay used to measure inhibition of HIV replication is as described in WO 2004/050643, pages 73-75, incorporated herein by reference, with the following modifications:
Serial dilutions of HIV-1 inhibitors are prepared in complete media from DMSO stock solutions. Eleven serial dilutions of desired concentration are prepared in a 1 mL deep well titer plate (96 wells). The 12th well contains complete media with no inhibitor and serves as the positive control. All samples contain the same concentration of DMSO (<0.1% DMSO). Inhibitor is added, to triplicate wells, of a 96 well tissue culture treated clear view black microtiter plate (Corning Costar catalogue #3904). The total volume per well is 200 μL of media containing the cells and inhibitor. The last row is reserved for uninfected C8166 LTRIuc cells to serve as the background blank control and the first row is media alone.
Count C8166 LTRIuc cells and place in a minimal volume of complete RPMI 1640 in a tissue culture flask (ex. 30×10^6 cells in 10 mL media/25 cm^2 flask). Infect cells with HIV-1 at a moi of 0.005. Incubate cells for 1.5 h at 37° C. on a rotating rack in a 5% CO2 incubator. Resuspend cells in complete RPMI to give a final concentration of 25,000-cells/well. Add cells to wells of 96 well microtiter plate containing inhibitors. Add 25,000 uninfected C8166-LTRIuc cells/well in 200 μL complete RPMI to last row for background control. Incubate cells at 37° C. in 5% CO2 incubator for 3 days.
50 μL Steady Glo (luciferase substrate T112=5 hours Promega catalogue # E2520) is added to each well of the 96 well plate. The relative light units (RLU) of luciferase are determined using a luminescence plate reader. The calculated % inhibition values are used to determine EC50, slope factor (n) and maximum inhibition (Imax).

[1] = Caco-2 Permeability Assay; format: in vitro ADME; conditions: human, apparent permeability A to B, compound at 10 μM, apical buffer pH 6.0, basolateral buffer pH 7.4, read-out: Papp (cm/sec, *10^−6)
Text: Caco-2 Permeability Assay Caco-2 cells are purchased from Cell Culture Services as frozen instant cells at a concentration of 1*10^7 cells/vial. DMEM+glutamax-I culture media is purchased from Gibco (10569). Fetal bovine serum (FBS) is purchased from HyClone (SH30396.03). Pennicilin/Streptomycin antibiotics are purchased from Gibco (15140). MEM non-essential amino acids are purchased from Gibco (11140). Hank's balanced salt solution (HBSS) is purchased from Gibco (14025). Bovine serum albumin (BSA) is purchased from Sigma-Aldrich (A7906). MES low moisture is purchased from Sigma-Aldrich (M3671). HEPES is purchased from Sigma-Aldrich (H3375). Dimethyl Sulfoxide (DMSO) is purchased from EMD (MX1457-6). Complete DMEM media is prepared by adding 1 L of FBS, 100 mL of pen/strep and 110 mL of MEM non essential amino acids to 10 L of DMEM+glutamax-I. […] Caco-2 cells are seeded on HTS transwell 24-well plates purchased from Corning (3397). These polycarbonate membrane plates have a diameter of […] and pore size of 0.4 μm. The Caco-2 cells vial is thawed in a 37° C. water bath until only a small ice pellet is left. The vial is then transferred to the laminar flow hood and its exterior is extensively washed with 70% ethanol. The total content of the vial (2 mL) is transferred into a 50 mL tube containing 38 mL of complete DMEM. […] The seeding is done by the Hamilton star robotic station which is controlled with the Venus program. Each well will receive 600 μL of complete DMEM on its basolateral side and 200 μL of cells on its apical side. Each well receives 50 000 cells. The 24-well plates are then returned to an automated Liconic STX110 incubator set at 37° C., 5% CO2 and 100% humidity. The culture media for the cells is changed every two days except on weekends. These cells are maintained for a period of two weeks prior to the running of the permeability assay. Permeability assays are usually performed between day 15 and 18 after the initial seeding. […] Controls for the assay are mannitol for tight junction determination and Digoxin for efflux transporter (p-glycoprotein) expression. On the day of the assay, each compound is diluted to 10 μM in the buffer (apical for A to B). 6 μl of the 5 mM DMSO stock is added to 3 mL of the buffer in a 24-well 10 mL deep plate covered with a lid. The plate containing all the diluted compounds is spun for 10 min at 3000 rpm in a Rotanta 46 RSC centrifuge from Hettich to remove unsoluble compound. This dilution is used to add at the start of the incubation. Each compound is tested in duplicate. On the day of the assay, the culture media of the 24-well plate is removed and replaced with warm HBSS. The HBSS is then also removed and the Apical and Basolatral buffer are added to their respective side of the transwells. These steps are performed by the Hamilton Star robotic station. The plate is then placed in a 37° C. incubator and is left to equilibrate for 30 min. After 30 min of incubation a background sample (25 μL from each well) is taken from the receiver side (Basolateral for A to B), and replenished with warm buffer. These samples and all others afterwards are kept in a 96-well 1 mL plate. To start the assay, the donor compartment (apical for A to B) is emptied and replaced with new buffer containing the compound at 10 μM. Once the compounds are added, the plate is returned to the 37° C. incubator and the timer is started. In order to determine how much compound is actually added to each well, a 50 μL sample is taken from each compound dilution, this sample is refered to as the load. These steps and the following are performed by the Tecan Freedom EVO robotic station controlled via the Gemini software. For A-to-B Assay: Samples (190 μL) are taken from each basolateral (receiver) chamber at time points 0, 60, 120 and 180 min or at time points 0, 30, 60 and 90 min. From the 190 μL taken, 50 μL is transferred to the receiving plate and 140 μL is discarded.

Compound	EC50 (HIV-1) [nM]	Papp A→B at 10 μM [1] [×10⁻⁶ cm/s]
CC[C@@H]1C[C@H](n2c(=O)nc(-c3ccc(NC)nc3)c3oc4ccc(-c5cnn(C)c5)cc4c32)CO1 (racemic) [Compound 1037]	10.2	8.2
CC[C@H]1C[C@@H](n2c(=O)nc(-c3cnn(C)c3)c3oc4ccc(-c5cnn(C)c5)nc4c32)CCO1 [Compound 1001]	4.9	20.4
CC[C@H]1C[C@@H](n2c(=O)nc(-c3cnn(C)c3)c3oc4ccc(-c5cn(C)nc5C)nc4c32)CCO1 [Compound 1002]	8.6	14.5
CC[C@H]1C[C@@H](n2c(=O)nc(-c3cnn(C)c3)c3oc4ccc(-c5ccn(C)n5)nc4c32)CCO1 [Compound 1003]	6.4	22.2
CC[C@H]1C[C@@H](n2c(=O)nc(-c3cnn(C)c3)c3oc4ccc(-c5cncnc5)nc4c32)CCO1 [Compound 1004]	21	14.1
CC[C@H]1C[C@@H](n2c(=O)nc(-c3cnn(C)c3)c3oc4ccc(-c5cccnc5)nc4c32)CCO1 [Compound 1006]	7.4	18.1
CC[C@H]1C[C@@H](n2c(=O)nc(-c3cnn(C)c3)c3oc4ccc(-c5cnco5)nc4c32)CCO1 [Compound 1007]	8.4	19.7
C[C@@H]1C[C@H](n2c(=O)nc(-c3cnn(C)c3)c3oc4ccc(-c5cnn(C)c5)nc4c32)C[C@H](C)O1 [Compound 1008]	73.9	18.1
CC[C@H]1C[C@@H](n2c(=O)nc(-c3cnn(C)c3)c3oc4ccc(-c5cnn(C)c5)nc4c32)C[C@@H](C)O1 [Compound 1009]	4.6	27.6
CC[C@H]1C[C@@H](n2c(=O)nc(-c3cnn(C)c3)c3oc4ccc(-n5cncn5)nc4c32)CCO1 [Compound 1013]	98	16.8
CC[C@H]1C[C@@H](n2c(=O)nc(-c3cnn(C)c3)c3oc4ccc(-c5cn(C)cn5)nc4c32)CCO1 [Compound 1014]	5.2	20.7
CC[C@H]1C[C@@H](n2c(=O)nc(-c3cnn(C)c3)c3oc4cc(C#N)c(-c5cnn(C)c5)nc4c32)CCO1 [Compound 1015]	3	20.7
C[C@@H]1C[C@H](n2c(=O)nc(-c3cnn(C)c3)c3oc4cc(C#N)c(-c5cnn(C)c5)nc4c32)C[C@H](C)O1 [Compound 1016]	89	15.9
CC[C@H]1C[C@@H](n2c(=O)nc(-c3cnn(C)c3)c3oc4cc(C#N)c(-c5cnn(C)c5)nc4c32)C[C@@H](C)O1 [Compound 1017]	22	23.6
CCC[C@H]1C[C@@H](n2c(=O)nc(-c3cnn(C)c3)c3oc4cc(C#N)c(-c5cnn(C)c5)nc4c32)CCO1 [Compound 1018]	22	19.8
CC[C@H]1C[C@@H](n2c(=O)nc(-c3cccnc3)c3oc4cc(C#N)c(-c5cnn(C)c5)nc4c32)CCO1 [Compound 1019]	52	22.5
CC[C@H]1C[C@@H](n2c(=O)nc(-c3cnn(C)c3)c3oc4cc(Cl)c(-c5cnn(C)c5)nc4c32)CCO1 [Compound 1022]	3.2	17.2
CNc1ccc(-c2nc(=O)n(CCC3CCCO3)c3c2oc2ccc(-c4cnn(C(C)C)c4)cc23)cn1 (centres unmarked) [Compound 1025]	350	8.1
Cn1cc(-c2ccc3oc4c(-c5ccc(N6CCOCC6)nc5)nc(=O)n(CCC5CCCO5)c4c3c2)cn1 (centres unmarked) [Compound 1026]	27.9	7.4
CNc1ccc(-c2nc(=O)n(CCC3CCCO3)c3c2oc2ccc(-c4cnco4)cc23)cn1 (centres unmarked) [Compound 1027]	54	12.4
CNc1ccc(-c2nc(=O)n(CCC3CCCO3)c3c2oc2ccc(-c4cncs4)cc23)cn1 (centres unmarked) [Compound 1028]	50	19.9
CNc1ccc(-c2nc(=O)n(CCC3CCCO3)c3c2oc2c(F)cc(-c4cnco4)cc23)cn1 (centres unmarked) [Compound 1029]	19	16.1
CNc1ccc(-c2nc(=O)n(CCC3CCCO3)c3c2oc2c(F)cc(-c4cnn(C)c4)cc23)cn1 (centres unmarked) [Compound 1030]	10.2	6.1
Cn1cc(-c2cc(F)c3oc4c(-c5ccc(N6CCOCC6)nc5)nc(=O)n(CCC5CCCO5)c4c3c2)cn1 (centres unmarked) [Compound 1031]	14	6.4
CNc1ccc(-c2nc(=O)n(CCC3CCCO3)c3c2oc2cc(F)c(-c4cnn(C)c4)cc23)cn1 (centres unmarked) [Compound 1032]	11.9	7.7
Cn1cc(-c2cc3c(cc2F)oc2c(-c4ccc(N5CCC5)nc4)nc(=O)n(CCC4CCCO4)c23)cn1 (centres unmarked) [Compound 1033]	7.6	6.9
CN(C)c1ccc(-c2nc(=O)n(CCC3CCCO3)c3c2oc2cc(F)c(-c4cnn(C)c4)cc23)cn1 (centres unmarked) [Compound 1034]	23	6.8
CC[C@H]1C[C@@H](n2c(=O)nc(-c3cnn(C)c3)c3oc4cc(C#N)c(-c5cnn(C)c5)cc4c32)CCO1 [Compound 1049]	15.1	–
CC[C@H]1C[C@@H](n2c(=O)nc(-c3ccc(NC)nc3)c3oc4ncc(-c5cnn(C)c5)cc4c32)CCO1 [Compound 1069]	7.8	–
